Reference: PubChem BioAssay AID2060618 (Molecular Pharmacology Branch, DTP, NCI, 2025)

Tested on: 454973-116-R2-J3-PDC spheroids, percent test/control viability
Test: Anticancer human tumor 454973-116-R2-J3-PDC patient-derived pancreatic carcinoma cell line growth inhibition [CLK]
Details: spheroids with HUVEC and MSC; for IC50: curve of first compound; for viability, T/C: stronger effect = lower value
In short: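 Multi-cell-type spheroids combined patient-derived tumor cells with HUVEC endothelial cells and human mesenchymal stem cells. Paired agents were dosed in half-log steps down from about clinical Cmax, or from 10 microM where Cmax was unknown.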
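Further: spheroids exposed to compounds for 7 days before readout.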

With C=CC(=O)Nc1cc(Nc2nccc(-c3cn(C)c4ccccc34)n2)c(OC)cc1N(C)CCN(C)C + CNC(=O)c1ccc(Nc2nc(OC3CCCC3)c3c(-c4ccc5nc(C)oc5c4)c[nH]c3n2)c(OC)c1 the IC50 (second compound 0.0316 µM) was > 300 nM, the IC50 (second compound 0.1 µM) was > 300 nM and the IC50 (second compound 0.316 µM) was < 0.949 nM. The IC50 (second compound 1 µM) was < 0.949 nM, the IC50 (second compound 3.16 µM) was < 0.949 nM and the IC50 (second compound 10 µM) was < 0.949 nM. For the same compound, the viability, T/C (second compound 0.0316 µM, first compound 0.000949 µM) was 106%, the viability, T/C (second compound 0.0316 µM, first compound 0.003 µM) was 108% and the viability, T/C (second compound 0.0316 µM, first compound 0.00949 µM) was 92.5%. It also gave a viability, T/C (second compound 0.0316 µM, first compound 0.03 µM) of 107%, a viability, T/C (second compound 0.0316 µM, first compound 0.0949 µM) of 104% and a viability, T/C (second compound 0.0316 µM, first compound 0.3 µM) of 101%. It also gave a viability, T/C (second compound 0.1 µM, first compound 0.000949 µM) of 95.9%, a viability, T/C (second compound 0.1 µM, first compound 0.003 µM) of 106% and a viability, T/C (second compound 0.1 µM, first compound 0.00949 µM) of 90.7%. For the same compound, the viability, T/C (second compound 0.1 µM, first compound 0.03 µM) was 80.9%, the viability, T/C (second compound 0.1 µM, first compound 0.0949 µM) was 69.7% and the viability, T/C (second compound 0.1 µM, first compound 0.3 µM) was 61%. It also gave a viability, T/C (second compound 0.316 µM, first compound 0.000949 µM) of 43.8%, a viability, T/C (second compound 0.316 µM, first compound 0.003 µM) of 36.4% and a viability, T/C (second compound 0.316 µM, first compound 0.00949 µM) of 30.5%. For the same compound, the viability, T/C (second compound 0.316 µM, first compound 0.03 µM) was 34.8%, the viability, T/C (second compound 0.316 µM, first compound 0.0949 µM) was 36.4% and the viability, T/C (second compound 0.316 µM, first compound 0.3 µM) was 32.7%. The viability, T/C (second compound 1 µM, first compound 0.000949 µM) was 27.9%, the viability, T/C (second compound 1 µM, first compound 0.003 µM) was 30.9% and the viability, T/C (second compound 1 µM, first compound 0.00949 µM) was 30.5%. It also gave a viability, T/C (second compound 1 µM, first compound 0.03 µM) of 29.8%, a viability, T/C (second compound 1 µM, first compound 0.0949 µM) of 34.5% and a viability, T/C (second compound 1 µM, first compound 0.3 µM) of 33.9%. It also gave a viability, T/C (second compound 3.16 µM, first compound 0.000949 µM) of 29.9%, a viability, T/C (second compound 3.16 µM, first compound 0.003 µM) of 28.3% and a viability, T/C (second compound 3.16 µM, first compound 0.00949 µM) of 26.7%. The viability, T/C (second compound 3.16 µM, first compound 0.03 µM) was 27.8%, the viability, T/C (second compound 3.16 µM, first compound 0.0949 µM) was 31.1% and the viability, T/C (second compound 3.16 µM, first compound 0.3 µM) was 22.1%. The viability, T/C (second compound 10 µM, first compound 0.000949 µM) was 33.9%, the viability, T/C (second compound 10 µM, first compound 0.003 µM) was 24% and the viability, T/C (second compound 10 µM, first compound 0.00949 µM) was 21.9%. It also gave a viability, T/C (second compound 10 µM, first compound 0.03 µM) of 25.4%, a viability, T/C (second compound 10 µM, first compound 0.0949 µM) of 27.9% and a viability, T/C (second compound 10 µM, first compound 0.3 µM) of 20.4%.

Nc1ccccc1NC(=O)c1ccc(CNC(=O)OCc2cccnc2)cc1 + CNC(=O)c1ccc(Nc2nc(OC3CCCC3)c3c(-c4ccc5nc(C)oc5c4)c[nH]c3n2)c(OC)c1 was tested, and the IC50 (second compound 0.0316 µM) was 1620 nM, the IC50 (second compound 0.1 µM) was 1660 nM and the IC50 (second compound 0.316 µM) was < 31.6 nM. The IC50 (second compound 1 µM) was < 31.6 nM, the IC50 (second compound 3.16 µM) was < 31.6 nM and the IC50 (second compound 10 µM) was < 31.6 nM. The viability, T/C (second compound 0.0316 µM, first compound 0.0316 µM) was 97.2%, the viability, T/C (second compound 0.0316 µM, first compound 0.1 µM) was 102% and the viability, T/C (second compound 0.0316 µM, first compound 0.316 µM) was 87.2%. The viability, T/C (second compound 0.0316 µM, first compound 1 µM) was 69.4%, the viability, T/C (second compound 0.0316 µM, first compound 3.16 µM) was 25.1% and the viability, T/C (second compound 0.0316 µM, first compound 10 µM) was 5.57%. It also gave a viability, T/C (second compound 0.1 µM, first compound 0.0316 µM) of 107%, a viability, T/C (second compound 0.1 µM, first compound 0.1 µM) of 95.9% and a viability, T/C (second compound 0.1 µM, first compound 0.316 µM) of 91.8%. For the same compound, the viability, T/C (second compound 0.1 µM, first compound 1 µM) was 69%, the viability, T/C (second compound 0.1 µM, first compound 3.16 µM) was 26.8% and the viability, T/C (second compound 0.1 µM, first compound 10 µM) was 6.74%. It also gave a viability, T/C (second compound 0.316 µM, first compound 0.0316 µM) of 46.9%, a viability, T/C (second compound 0.316 µM, first compound 0.1 µM) of 40.4% and a viability, T/C (second compound 0.316 µM, first compound 0.316 µM) of 42.2%. It also gave a viability, T/C (second compound 0.316 µM, first compound 1 µM) of 31.3%, a viability, T/C (second compound 0.316 µM, first compound 3.16 µM) of 19% and a viability, T/C (second compound 0.316 µM, first compound 10 µM) of 5.37%. The viability, T/C (second compound 1 µM, first compound 0.0316 µM) was 29.1%, the viability, T/C (second compound 1 µM, first compound 0.1 µM) was 27.1% and the viability, T/C (second compound 1 µM, first compound 0.316 µM) was 23.6%. The viability, T/C (second compound 1 µM, first compound 1 µM) was 28.6%, the viability, T/C (second compound 1 µM, first compound 3.16 µM) was 16.8% and the viability, T/C (second compound 1 µM, first compound 10 µM) was 3.41%. It also gave a viability, T/C (second compound 3.16 µM, first compound 0.0316 µM) of 28.7%, a viability, T/C (second compound 3.16 µM, first compound 0.1 µM) of 30.1% and a viability, T/C (second compound 3.16 µM, first compound 0.316 µM) of 24.4%. For the same compound, the viability, T/C (second compound 3.16 µM, first compound 1 µM) was 27.1%, the viability, T/C (second compound 3.16 µM, first compound 3.16 µM) was 17.2% and the viability, T/C (second compound 3.16 µM, first compound 10 µM) was 2.74%. It also gave a viability, T/C (second compound 10 µM, first compound 0.0316 µM) of 26.9%, a viability, T/C (second compound 10 µM, first compound 0.1 µM) of 24.5% and a viability, T/C (second compound 10 µM, first compound 0.316 µM) of 21.1%. The viability, T/C (second compound 10 µM, first compound 1 µM) was 21.8%, the viability, T/C (second compound 10 µM, first compound 3.16 µM) was 16.8% and the viability, T/C (second compound 10 µM, first compound 10 µM) was 2.21%.
